# Reference: patent US7223759B2, “Antibacterial 3,5-diaminopiperidine-substituted aromatic and heteroaromatic compounds” (Anadys Pharmaceuticals, Inc., priority 2003, dated 2007)
# Like-named read-outs stand apart in the source and are kept apart here.
# System: Escherichia coli (ATCC25922) or Staphylococcus aureus (ATCC25923)
# Experiment: Antibacterial MIC, microdilution method in Mueller-Hinton medium
# Format: cell-based
# Conditions: for MIC: Escherichia coli, 18 h, read-out: Potency (MIC)
# Method in brief: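 Two-fold serial dilutions from 64 to 0.5 μg/ml, in duplicate, by broth microdilution in Mueller-Hinton medium (NCCLS M7-A5). MIC taken as the lowest concentration preventing visible growth after 18 h at 35° C.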
# [1] = MIC in E. coli or S. aureus, two-fold serial dilutions 64 to 0.5 μg/ml in duplicate, 18 hours of incubation at 35° C.
Structure (SMILES),MIC [µg/mL],MIC [1] [µg/mL],further results
"N[C@@H]1C[C@H](N)CN(c2nc(NNc3ccccc3F)nc(N3C[C@H](N)C[C@H](N)C3)n2)C1 [N-(4,6-Bis-((3R,5S)-3,5-diamino-piperidin-1-yl)-[1,3,5]triazin-2-yl)-N′-(2-Fluoro-phenyl)-hydrazine]",> 64,,
"Cl.N[C@@H]1C[C@H](N)CN(c2nc(Nc3ccc(Cl)c(Cl)c3)nc(N3C[C@H](N)C[C@H](N)C3)n2)C1 [N-(3,4-dichloro-phenyl)-4,6-Bis-((3R,5S)-3,5-diamino-piperidin-1-yl)-[1,3,5]triazine-2-amine]",,< 64,
"Cc1ccccc1NNc1nc(N2C[C@H](N)C[C@H](N)C2)nc(N2C[C@H](N)C[C@H](N)C2)n1 [N-(4,6-Bis-((3R,5S)-3,5-diamino-piperidin-1-yl)-[1,3,5]triazin-2-yl)-N′-o-Tolyl-hydrazine]",< 64,,
"N[C@@H]1C[C@H](N)CN(c2nc(Nc3ccccc3N3CCOCC3)nc(N3C[C@H](N)C[C@H](N)C3)n2)C1 [N-(2-morpholin-44-yl-phenyl)-4,6-Bis-((3R,5S)-3,5-diamino-piperidin-1-yl)-[1,3,5]triazine-2-amine]",,> 64,
"N[C@@H]1C[C@H](N)CN(c2nc(Nc3ccc(NC(=O)c4cccc([N+](=O)[O-])c4O)cc3O)nc(N3C[C@H](N)C[C@H](N)C3)n2)C1 [N-[2-hydroxy-4-(2-hydroxy-3-nitro-benzoylamino)-phenyl]-4,6-Bis-((3R,5S)-3,5-diamino-piperidin-1-yl)-[1,3,5]triazine-2-amine]",< 64,,
"N[C@@H]1C[C@H](N)CN(c2nc(Nc3ccc(SC(F)(F)F)cc3)nc(N3C[C@H](N)C[C@H](N)C3)n2)C1 [N-(4-trifluoromethylsulfanyl-phenyl)-4,6-Bis-((3R,5S)-3,5-diamino-piperidin-1-yl)-[1,3,5]triazine-2-amine]",,< 64,
"N[C@@H]1C[C@H](N)CN(c2nc(Nc3ccc(NC(=O)c4ccc5ccccc5c4O)cc3)nc(N3C[C@H](N)C[C@H](N)C3)n2)C1 [N-{4-[(1-hydroxy-naphthalene-2-carbonyl)-amino]-phenyl}-4,6-Bis-((3R,5S)-3,5-diamino-piperidin-1-yl)-[1,3,5]triazine-2-amine]",< 16,,
"Cc1ccc(S(=O)(=O)N(Cc2ccccc2)c2ccc(Nc3nc(N4C[C@H](N)C[C@H](N)C4)nc(N4C[C@@H](N)[C@@H](N)C4)n3)cc2O)cc1 [N-Benzyl-N-{4-[4-((3R,5S)-3,5-diamino-piperidin-1-yl)-6-((3R,4S)-3,4-diamino-pyrrolidin-1-yl)-[1,3,5]triazin-2-ylamino]-2-hydroxy-phenyl}-4-methyl-benzenesulfonamide]",< 16,,
"Cl.O=C(Oc1ccccc1)c1ccc(Nc2nc(N3CCCCC3)nc(N3CCCCC3)n2)cc1O [drawing 229, 4-[4-((3S,5R)-3,5-diamino-piperidin-1-yl)-6-((3R,5R)-3,5-dihydroxy-piperidin-1-yl)-[1,3,5]triazin-2-ylamino]-2-hydroxy-benzoic acidphenyl ester]",,,Potency (MIC) [1]: − (− means MIC>64 μg/ml in E. coli or S. aureus)
"NC(=O)c1ccc(NC(=O)c2ccc(Nc3nc(N4C[C@H](N)C[C@H](N)C4)nc(N4C[C@H](N)C[C@H](N)C4)n3)cc2O)cc1 [N-[4-(4-carbamoyl-phenylcarbamoyl)-3-hydroxy-phenyl]-4,6-Bis-((3R,5S)-3,5-diamino-piperidin-1-yl)-[1,3,5]triazine-2-amine]",> 64,,
"N[C@@H]1C[C@H](N)CN(c2nc(Nc3ccc(C(=O)CC(=O)Nc4ccc(Cl)cc4Cl)cc3)nc(N3C[C@H](N)C[C@H](N)C3)n2)C1 [N-{4-[2-(2,4-dichloro-phenylcarbamoyl)-acetyl]-phenyl}-4,6-Bis-((3R,5S)-3,5-diamino-piperidin-1-yl)-[1,3,5]triazine-2-amine]",< 64,,
"N[C@@H]1C[C@H](N)CN(c2nc(Nc3ccc(S(=O)(=O)Nc4ccc5cn[nH]c5c4)cc3)nc(N3CCC(N4CCCC4)CC3)n2)C1 [4-[4-((3S,5R)-3,5-Diamino-piperidin-1-yl)-6-(4-pyrrolidin-1-yl-piperidin-1-yl)-[1,3,5]triazin-2-ylamino]-N-(1H-indazol-6-yl)-benzenesulfonamide]",,> 64,
"N[C@@H]1C[C@H](N)CN(c2nc(NNc3ccc([N+](=O)[O-])cc3[N+](=O)[O-])nc(N3C[C@H](N)C[C@H](N)C3)n2)C1 [N-(4,6-Bis-((3R,5S)-3,5-diamino-piperidin-1-yl)-[1,3,5]triazin-2-yl)-N′-(2,4-Dinitro-phenyl)-hydrazine]",,> 64,
"N[C@@H]1C[C@H](N)CN(c2nc(Nc3ccc(NC(=O)C(F)(F)F)cc3)nc(N3C[C@H](N)C[C@H](N)C3)n2)C1 [N-[4-(2,2,2-trifluoro-acetylamino)-phenyl]-4,6-Bis-((3R,5S)-3,5-diamino-piperidin-1-yl)-[1,3,5]triazine-2-amine]",,> 64,
"Cl.NC(=O)c1ccc(Nc2nc(N3C[C@H](N)C[C@H](N)C3)nc(N3C[C@H](N)C[C@H](N)C3)n2)cc1 [N-(4-carbamoyl-phenyl)-4,6-Bis-((3R,5S)-3,5-diamino-piperidin-1-yl)-[1,3,5]triazine-2-amine]",,> 64,
"CSc1cccc(Nc2nc(N3C[C@H](N)C[C@H](N)C3)nc(N3C[C@H](N)C[C@H](N)C3)n2)c1.Cl [N-(3-methyylsulfanyl-phenyl)-4,6-Bis-((3R,5S)-3,5-diamino-piperidin-1-yl)-[1,3,5]triazine-2-amine]",,< 64,
"N[C@@H]1C[C@H](N)CN(c2nc3nc(Nc4ccc(NC(=O)c5ccc6ccccc6c5O)cc4)nc(N4C[C@H](N)C[C@H](N)C4)c3[nH]2)C1 [1-Hydroxy-naphthalene-2-carboxylicacid {4-[6-((3R,5S)-3,5-diamino-piperidin-1-yl)-8-((3S,5R)-3,5-diamino-piperidin-1-yl)-7H-purin-2-ylamino]-phenyl}-amide]",< 16,,
"Cc1ccc(C(=O)Nc2ccc(Nc3nc(N4C[C@H](N)C[C@H](N)C4)nc(N4C[C@H](N)C[C@H](N)C4)n3)cc2O)c(O)c1 [N-[3-hydroxy-4-(2-hydroxy-4-methyl-benzoylamino)-phenyl]-4,6-Bis-((3R,5S)-3,5-diamino-piperidin-1-yl)-[1,3,5]triazine-2-amine]",,< 16,
"Cc1cc(Nc2nc(N3C[C@H](N)C[C@H](N)C3)nc(N3C[C@H](N)C[C@H](N)C3)n2)ccc1NC(=O)c1ccc(Cl)cc1O [N-[4-(4-chloro-2-hydroxy-benzoylamino)-3-methyl-phenyl]-4,6-Bis-((3R,5S)-3,5-diamino-piperidin-1-yl)-[1,3,5]triazine-2-amine]",< 16,,
"N[C@@H]1C[C@H](N)CN(c2nc(Nc3ccc(C(=O)CC(=O)Nc4ccccc4Cl)cc3)nc(N3C[C@H](N)C[C@H](N)C3)n2)C1 [N-{4-[2-(2-chloro-phenylcarbamoyl)-acetyl]-phenyl}-4,6-Bis-((3R,5S)-3,5-diamino-piperidin-1-yl)-[1,3,5]triazine-2-amine]",,< 16,
"Cc1ccc(C(=O)Nc2ccc(Nc3nc(N4C[C@H](N)C[C@H](N)C4)nc(N4C[C@@H](N)C[C@H]4CN)n3)cc2O)cc1 [N-{4-[4-((2S,4S)-4-Amino-2-aminomethyl-pyrrolidin-1-yl)-6-((3R,5S)-3,5-diamino-piperidin-1-yl)-[1,3,5]triazin-2-ylamino]-2-hydroxy-phenyl}-4-methyl-benzamide]",< 64,,
"N[C@@H]1C[C@H](N)CN(c2nc(Nc3ccc(C(=O)CC(=O)Nc4ccccc4Cl)cc3)nc(N3C[C@@H](N)[C@@H](N)C3)n2)C1 [N-(2-Chloro-phenyl)-3-{4-[4-((3R,5S)-3,5-diamino-piperidin-1-yl)-6-((3R,4S)-3,4-diamino-pyrrolidin-1-yl)-[1,3,5]triazin-2-ylamino]-phenyl}-3-oxo-propionamide]",< 64,,
"N[C@@H]1C[C@H](N)CN(c2nc(Nc3ccc(C(=O)CC(=O)Nc4ccc(Cl)cc4F)cc3)nc(N3C[C@H](N)C[C@H](N)C3)n2)C1 [N-{4-[2-(4-chloro-2-fluoro-phenylcarbamoyl)-acetyl]-phenyl}-4,6-Bis-((3R,5S)-3,5-diamino-piperidin-1-yl)-[1,3,5]triazine-2-amine]",< 16,,
"N[C@@H]1C[C@H](N)CN(c2nc(Nc3ccc(C(=O)Nc4ccc5c(c4)OCO5)c(O)c3)nc(N3C[C@H](N)C[C@H](N)C3)n2)C1 [N-[4-(benzo[1,3]dioxol-5-ylcarbamoyl)-3-hydroxy-phenyl]-4,6-Bis-((3R,5S)-3,5-diamino-piperidin-1-yl)-[1,3,5]triazine-2-amine]",< 16,,
"NC[C@@H]1C[C@H](N)CN1c1nc(Nc2ccc(NC(=O)C(=O)c3c[nH]c4ccccc34)c(O)c2)nc(N2C[C@H](N)C[C@H](N)C2)n1 [N-{4-[4-((2S,4S)-44-Amino-2-aminomethyl-pyrrolidin-1-yl)-6-((3R,5S)-3,5-diamino-piperidin-1-yl)-[1,3,5]triazin-2-ylamino]-2-hydroxy-phenyl}-2-(1H-indol-3-yl)-2-oxo-acetamide]",,,Potency (MIC) [1]: ++ (++ means MIC<16 μg/ml in E. coli or S. aureus)
"Cl.NC1C[C@H](N)CN(c2nc(Nc3ccc(Br)c4ccccc34)nc(N3C[C@H](N)C[C@H](N)C3)n2)C1 (stereo in doubt) [N-(4-bromo-naphthalen-1-yl)-4,6-Bis-((3R,5S)-3,5-diamino-piperidin-1-yl)-[1,3,5]triazine-2-amine]",,< 64,
"N[C@@H]1C[C@H](N)CN(c2nc(Nc3ccc(C(=O)CC(=O)Nc4ccc(SC(F)(F)F)cc4)cc3)nc(N3C[C@@H](N)C[C@H]3CO)n2)C1 [3-{4-[4-((2S,4S)-4-Amino-2-hydroxymethyl-pyrrolidin-1-yl)-6-((3R,5S)-3,5-diamino-piperidin-1-yl)-[1,3,5]triazin-2-ylamino]-phenyl}-3-oxo-N-(4-trifluoromethylsulfanyl-phenyl)-propionamide]",< 16,,
"CC(=O)c1ccc(Nc2nc(N3C[C@H](N)C[C@H](N)C3)nc(N3C[C@H](N)C[C@H](N)C3)n2)cc1 [N-(4-acetyl-phenyl)-4,6-Bis-((3R,5S)-3,5-diamino-piperidin-1-yl)-[1,3,5]triazine-2-amine]",< 64,,
